We go through four compounds from US12503704B2, “Modified cell” (Oxford University Innovation Limited, priority 2019, dated 2025).

One data set has as its system parent cells. As to the kind of experiment: Screen of D-cycloserine concentrations to maintain SimCell purity. Type of data set: cell-based, Escherichia coli. Conditions: little to no increase in OD. On the procedure:
A protocol for minimal cell purification from Heinemann and Ankenbauer was adapted for SimCell purification (12)^a. Mixed cultures of SimCells and parent cells were treated with D-cycloserine to kill actively dividing cells. D-cycloserine was added at a concentration of 200 μg/mL and cells were left to incubate at 37° C. and shake for 1.5 hours before D-cycloserine was added again at the same concentration. After 24 hours of treatment with D-cycloserine, cells were spun down and washed twice with phosphate buffered saline (PBS). When pure SimCell cultures were induced for protein expression, 25 μg/mL D-cycloserine was added every two days to prevent parent cell growth but allow SimCells to be functional.
Further optimization of D-cycloserine concentration ensured pure SimCell populations in the following experiments, and excluded the contribution made by remaining parent cells in SimCell populations. After a screen of D-cycloserine concentrations, 25 μg/mL was determined to be the point where parent cells were killed in the culture evidenced by little to no increase in OD (Table S3) but also permitted protein production or other activities in SimCells. By using D-cycloserine which targets active, parent cells, we were able to distinguish activity from SimCells on a larger, culture-level scale for further characterization.

Data set [1] relates to ICeuI+ Glycolysis+ strain. As to the kind of experiment: D-cycloserine treatment, plate counts over time. Format: cell-based, Escherichia coli. Particulars: 200 μg/mL D-cycloserine at time 0 and 1.5 hours.
The test system of data set [2] is ICeuI− Glycolysis− strain. As to the kind of experiment: D-cycloserine treatment, plate counts over time. Format: cell-based, Escherichia coli. Particulars: 200 μg/mL D-cycloserine at time 0 and 1.5 hours.
For data set [3], the system named is ICeuI− Glycolysis+ strain. As to the kind of experiment: D-cycloserine treatment, plate counts over time. Type of data set: cell-based, Escherichia coli. Conditions: 200 μg/mL D-cycloserine at time 0 and 1.5 hours.
Data set [4] concerns ICeuI+ Glycolysis− strain. As to the kind of experiment: D-cycloserine treatment, plate counts over time. Type of data set: cell-based, Escherichia coli. Conditions: 200 μg/mL D-cycloserine at time 0 and 1.5 hours.
A further data set relates to SalAR circuit. As to the kind of experiment: GFP output after induction of the SalAR circuit (pSalAR-GFP) in parent cells. Type of data set: cell-based, Escherichia coli. The text has this:
FIGS. 33A-33E: The levels of GFP over time after induction of the SalAR circuit can act as an indicator for the kinetics of catechol production. Production of GFP by parent cells with the pSalAR-GFP plasmid and FIG. 33A without an additional glycolysis pathway (pSEVA224) or FIG. 33B with an additional glycolysis pathway (pSEVA224-GB3). […] FIG. 33C Ratio of fluorescent output of induced cells versus cells not induced with SA. In parent cells GFP production increased by about 1.5 and 2-fold when induced with 100 μM and 500 μM SA, respectively. FIG. 33D Catechol production by E. coli. LB agar plates with aspirin and salicylic acid have no color (top), while catechol is distinctly brown (bottom). When E. coli with pSalAR-GFP was plated on agar with inducers 2 mM Aspirin (bottom middle) or 2 mM salicylic acid (bottom right) catechol was produced and diffused out of the cell, tinting the agar brown. […] FIG. 33E The color of the supernatant darkens as inducer concentration increases, indicating production and export of catechol. SA: salicylic acid, ASA: acetylsalicylic acid (aspirin).

In data set [5] the test system is fibroblasts; A549, Mo59K, and RD cancer cells.
Data set [6] has the same test system. As to the kind of experiment: Cell viability assay with supplements, all mammalian cell lines. Particulars: PBS control.
The subject of data set [7] is glioblastoma (Mo59K) cancer cell line. As to the kind of experiment: Cell viability assay (crystal violet). Type of data set: cell-based. Conditions: catechol at concentrations as low as 100 μM, 24 hours.
Data set [8] has as its system A549 lung cancer cell line. As to the kind of experiment: Cell viability assay (crystal violet). Conditions: catechol at concentrations as low as 100 μM, 24 hours. Type of data set: cell-based.
Data set [9] relates to fibroblast control cell line (Fibroblasts). As to the kind of experiment: Cell viability assay (crystal violet). Particulars: catechol at concentrations as low as 100 μM, 24 hours. Format: cell-based.
Data set [10] relates to rhabdomyosarcoma (RD) cancer cell line. As to the kind of experiment: Cell viability assay (crystal violet). Format: cell-based. Particulars: catechol at concentrations as low as 100 μM, 24 hours.

Where two headings read alike, the source gives them in different places.

Consider `N[C@@H]1CONC1=O` [D-cycloserine], for which the “D-cycloserine concentration at which parent cells were killed while SimCell activity was permitted” value in the data set with parent cells is 25 µg/mL. Further, the CFU/mL in data set [1] (time 0 hr) was 3.08 × 10^5 CFU/mL; in data set [1] (time 1.5 hr) it was 2.7 × 10^3 CFU/mL; in [1] (time 5 hr), 7.5 × 10^2 CFU/mL; in data set [1] (time 24 hr), 0 CFU/mL; in data set [2] (time 0 hr) it was 1.8 × 10^9 CFU/mL; in [2] (time 1.5 hr), 1.1 × 10^9 CFU/mL. The CFU/mL is 1.3 × 10^7 CFU/mL in [2] (time 5 hr); 1.6 × 10^7 CFU/mL in data set [2] (time 24 hr); 1.0 × 10^9 CFU/mL in [3] (time 0 hr); 6.9 × 10^8 CFU/mL in data set [3] (time 1.5 hr); 4 × 10^7 CFU/mL in data set [3] (time 5 hr); 8.3 × 10^4 CFU/mL in data set [3] (time 24 hr). Moreover, the CFU/mL is reported as 3.5 × 10^5 CFU/mL in data set [4] (time 0 hr), 4.1 × 10^3 CFU/mL in data set [4] (time 1.5 hr), 7.2 × 10^2 CFU/mL in data set [4] (time 5 hr) and 0 CFU/mL in [4] (time 24 hr).

For `O=C(O)c1ccccc1O` [SA, salicylic acid], the “increase in GFP production, induced versus not induced” value was “about 1.5 fold” with SalAR circuit (100 μM SA) and roughly 2 fold in the data set on SalAR circuit (500 μM SA). Also, the “effect of supplement alone on viability of mammalian cell lines” value in [5] is “no adverse effects”; in data set [6], “did not cause cell death”.

Regarding `CC(=O)Oc1ccccc1C(=O)O` [aspirin, acetylsalicylic acid], the “effect of supplement alone on viability of mammalian cell lines” value in data set [5] is recorded as “no adverse effects”.

For `Oc1ccccc1O` [catechol, 1,2-dihydroxybenzene], the cell viability entry was “significantly decreased the viability” in [7], “significantly decreased the viability” in data set [8], “less of an adverse effect” in [9] and “significantly decreased the viability” in data set [10].
